Reference: US9296734B2 (AMGEN INC., priority 2013, dated 2016)
Where two headings read alike, the source gives them in different places.

Legend:
[1] = target: Beta Secretase enzyme (BACE) (Homo sapiens (Human), UniProt P56817); assay: In vitro enzymatic BACE FRET assay; format: biochemical; details: read-out: BACE 1 FRET assay IC50
Protocol: In Vitro Enzymatic BACE FRET (Fluorescence Resonance Energy Transfer) Assay (Enzyme Assay Data in the Example Table I)
The assay buffer used in this screen is 0.05 M acetate, pH 4.2, 10% DMSO final, 100 uM genapol (which is a nonionic detergent, below its Critical Micelle Concentration). […] This assay is effectively started by the addition of FRET substrate (50 nM) and the combination is incubated for one hour. The FRET assay is terminated with by addition of Tris buffer, which raises the pH to neutrality, and the fluorescence is determined. The FRET substrate is a peptide with commercially available fluorophore and quencher, on opposite sides of the BACE cleavage site.

[2] = tested on: Aβ40 in conditioned medium of cells stably expressing Amyloid Precursor Protein (APP); assay: In vitro BACE cell-based assay (Aβ40 sandwich ELISA); details: Homo sapiens
Protocol: In Vitro BACE Cell-Based Assay
The cell-based assay measures inhibition or reduction of Aβ40 in conditioned medium of test compound treated cells expressing amyloid precursor protein.
Cells stably expressing Amyloid Precursor Protein (APP) were plated at a density of 40K cells/well in 96 well plates (Costar). The cells were cultivated for 24 hours at 37° C. and 5% CO2 in DMEM supplemented with 10% FBS. The test compounds were then added to cells in 10-point dose response concentrations with the starting concentration being either 100 μM or 10 μM. The compounds were diluted from stock solutions in DMSO and the final DMSO concentration of the test compounds on cells was 0.1%. After 24 h of incubation with the test compounds the supernatant conditioned media was collected and the Aβ 40 levels were determined using a sandwich ELISA. The IC50 of the compound was calculated from the percent of control or percent inhibition of Aβ 40 as a function of the concentration of the test compound.
The sandwich ELISA to detect Aβ 40 was performed in 96 well microtiter plates, which were pre-treated with goat anti-rabbit IgG (Pierce). The capture and detecting antibody pair that were used to detect Aβ 40 from cell supernatants were affinity purified pAb40 (Biosource) and biotinylated 6E10 (Signet Labs Inc.), respectively. The optimal concentration for the pAb40 antibody was 3 μg/ml in Superblock/TBS (Pierce) that was supplemented with 0.05% Tween 20 (Sigma).
Cellular supernatants were incubated with the capture antibody for 3 h at 4° C., followed by 3 wash steps in TBS-tween (0.05%). The detecting antibody incubation was for 2 h at 4° C., again followed by the wash steps as described previously. The final readout of the ELISA is Time-Resolved Fluorescence (counts per minute) using Delfia reagents Streptavidin-Europium and Enhancement solutions (Perkin Elmer) and the Victor 2 multilabel counter (Perkin Elmer).

[3] = target: Cathepsin D (Cat D) (Homo sapiens (Human), UniProt P07339); assay: In vitro enzymatic Cathepsin D (Cat D) FRET assay; format: biochemical; details: read-out: CatD IC50
Sequence of Cathepsin D (Cat D) (P07339 65-412, species assumed): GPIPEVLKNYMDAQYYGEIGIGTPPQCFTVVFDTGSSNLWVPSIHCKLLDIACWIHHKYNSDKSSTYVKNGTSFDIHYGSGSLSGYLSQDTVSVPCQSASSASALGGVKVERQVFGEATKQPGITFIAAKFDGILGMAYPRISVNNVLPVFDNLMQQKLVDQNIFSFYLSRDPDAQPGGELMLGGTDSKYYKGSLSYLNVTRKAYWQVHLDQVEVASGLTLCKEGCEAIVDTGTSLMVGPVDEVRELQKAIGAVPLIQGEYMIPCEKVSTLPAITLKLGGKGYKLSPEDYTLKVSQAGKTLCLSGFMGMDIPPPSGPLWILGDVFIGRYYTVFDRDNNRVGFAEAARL
Procedure, shortened: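 CHO-expressed recombinant Cat D cleaves a fluorophore/quencher FRET peptide (20 nM) in 0.05 M citrate pH 3.5, 5 mM CHAPS, 10% DMSO final, over 1 h. Tris addition neutralizes pH to stop the reaction; fluorescence read at excitation 500 nm, emission 580 nm.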

[4] = average IC50, BACE enzyme assay
[5] = HEK293, average IC50, HEK cell assay, read-out: HEK cell assay IC50
[6] = average IC50, cathepsin D enzyme assay
[7] = HEK293, read-out: HEK cell assay IC50
[8] = HEK293, HEK cells, average, read-out: HEK cell assay IC50
[9] = HEK293, average IC50, HEK cells, read-out: HEK cell assay IC50

Sequence of Beta Secretase enzyme (BACE) (P56817 46-501): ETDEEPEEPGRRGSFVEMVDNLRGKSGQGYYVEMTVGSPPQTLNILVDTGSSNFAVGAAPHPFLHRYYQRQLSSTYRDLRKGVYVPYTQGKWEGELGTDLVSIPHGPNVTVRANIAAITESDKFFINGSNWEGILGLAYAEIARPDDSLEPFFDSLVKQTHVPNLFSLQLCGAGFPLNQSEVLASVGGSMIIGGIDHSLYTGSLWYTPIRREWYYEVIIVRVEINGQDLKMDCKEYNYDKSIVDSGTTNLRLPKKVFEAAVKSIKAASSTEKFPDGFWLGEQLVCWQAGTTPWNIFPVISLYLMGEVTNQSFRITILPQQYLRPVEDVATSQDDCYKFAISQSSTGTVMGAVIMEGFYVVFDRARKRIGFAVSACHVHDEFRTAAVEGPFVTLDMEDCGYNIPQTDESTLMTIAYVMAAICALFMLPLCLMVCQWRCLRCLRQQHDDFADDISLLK

Row | IC50 [1, 4] [µM] | IC50 [2, 5] [µM] | IC50 [3, 6] [µM] | IC50 ([1]; average) [µM] | IC50 ([3]; average) [µM] | IC50 [2, 8] [µM] | SMILES | other results
1 | 0.206 | 0.038 | > 400 |  |  |  | C[C@@]1(c2cc(NC(=O)c3ccc(F)cn3)cnc2F)C[C@@H](C(F)(F)F)OC(N)=N1 [Example 64, N-(5-((4S,6S)-2-amino-4-methyl-6-(trifluoromethyl)-5,6-dihydro-4H-1,3-oxazin-4-yl)-6-fluoropyridin-3-yl)-5-fluoropicolinamide] | 
2 |  |  |  | 0.023 | 488 | 0.012 | C[C@@]1(c2cc(NC(=O)c3ccc(C#N)cn3)cc(Cl)c2F)C[C@@H](C(F)(F)F)OC(N)=N1 [Example 206, N-(3-((4S,6S)-2-amino-4-methyl-6-(trifluoromethyl)-5,6-dihydro-4H-1,3-oxazin-4-yl)-5-chloro-4-fluorophenyl)-5-cyanopicolinamide] | 
3 | 19 | 7 | 1760 |  |  |  | N#Cc1cc(Nc2ccc(F)c([C@]3(CF)C[C@@H](C(F)(F)F)OC(N)=N3)c2)ccn1 [Example 24, 4-((3-((4S,6S)-2-amino-4-(fluoromethyl)-6-(trifluoromethyl)-5,6-dihydro-4H-1,3-oxazin-4-yl)-4-fluorophenyl)amino)picolinonitrile] | 
4 |  |  |  |  |  |  | NC1=N[C@](CF)(c2cc(Oc3ncccn3)ccc2F)C[C@@H](C(F)(F)F)O1 [Example 108, (4S,6S)-4-(2-fluoro-5-(pyrimidin-2-yloxy)phenyl)-4-(fluoromethyl)-6-(trifluoromethyl)-5,6-dihydro-4H-1,3-oxazin-2-amine] | IC50 ([1]; average IC50): 9.97 µM; IC50 [2, 9]: > 15.6 µM; IC50 ([3]; average IC50): > 400 µM
5 |  |  |  | 0.071 | > 400 | 0.011 | COc1cc(Cl)cnc1C(=O)Nc1cc(F)c(F)c([C@]2(C)C[C@@H](C(F)(F)F)OC(N)=N2)c1 [Example 195, N-(3-((4S,6S)-2-amino-4-methyl-6-(trifluoromethyl)-5,6-dihydro-4H-1,3-oxazin-4-yl)-4,5-difluorophenyl)-5-chloro-3-methoxypicolinamide] | 
6 | 0.013 | 0.093 | > 400 |  |  |  | C#CCOc1ccc(C(=O)Nc2cc(F)c(F)c([C@]3(CF)C[C@@H](C(F)(F)F)OC(N)=N3)c2)nc1 [Example 159, N-(3-((4S,6S)-2-amino-4-(fluoromethyl)-6-(trifluoromethyl)-5,6-dihydro-4H-1,3-oxazin-4-yl)-4,5-difluorophenyl)-5-(prop-2-yn-1-yloxy)picolinamide] | 
7 |  |  |  | 0.003 | 784 | 0.003 | CC#CCOc1ccc(C(=O)Nc2cc(F)c(F)c([C@]3(C)C[C@@H](C(F)(F)F)OC(N)=N3)c2)nc1 [Example 189, N-(3-((4S,6S)-2-amino-4-methyl-6-(trifluoromethyl)-5,6-dihydro-4H-1,3-oxazin-4-yl)-4,5-difluorophenyl)-5-(but-2-yn-1-yloxy)picolinamide] | 
8 | 0.019 | 0.019 | 394 |  |  |  | C[C@@]1(c2cc(NC(=O)c3ncc(Cl)cc3Cl)cc(F)c2F)C[C@@H](C(F)(F)F)OC(N)=N1 [Example 172, N-(3-((4S,6S)-2-amino-4-methyl-6-(trifluoromethyl)-5,6-dihydro-4H-1,3-oxazin-4-yl)-4,5-difluorophenyl)-3,5-dichloropicolinamide] | 
9 | 8.36 | > 15.6 | 454 |  |  |  | NC1=N[C@](CF)(c2cc(-c3cncc(-c4nnco4)c3)ccc2F)C[C@@H](C(F)(F)F)O1 [Example 118, (4S,6S)-4-(5-(5-(1,3,4-oxadiazol-2-yl)pyridin-3-yl)-2-fluorophenyl)-4-(fluoromethyl)-6-(trifluoromethyl)-5,6-dihydro-4H-1,3-oxazin-2-amine] | 
10 |  |  |  | 0.057 | > 400 | 0.024 | Cc1cc(NC(=O)c2ccc(C#N)cn2)cc([C@]2(CF)C[C@@H](C(F)(F)F)OC(N)=N2)c1F [Example 225, N-(3-((4S,6S)-2-amino-4-(fluoromethyl)-6-(trifluoromethyl)-5,6-dihydro-4H-1,3-oxazin-4-yl)-4-fluoro-5-methylphenyl)-5-cyanopicolinamide] | 
11 |  |  |  |  |  |  | COc1cnc2c(Nc3ccc(F)c([C@]4(CF)C[C@@H](C(F)(F)F)OC(N)=N4)c3)nccc2n1 (racemic) [Example 9, (4S,6S)-4-(2-fluoro-5-((2-methoxypyrido[3,4-b]pyrazin-5-yl)amino)phenyl)-4-(fluoromethyl)-6-(trifluoromethyl)-5,6-dihydro-4H-1,3-oxazin-2-amine] | IC50 ([1]; average IC50): 0.05 µM; IC50 [2, 9]: 0.372 µM; IC50 ([3]; average IC50): > 400 µM
12 |  |  |  | 0.118 | > 400 | 0.085 | COc1cnc(C(=O)Nc2cc(F)c(F)c([C@]3(C)C[C@@H](C(F)(F)F)OC(N)=N3)c2)c(C)n1 [Example 173, N-(3-((4S,6S)-2-amino-4-methyl-6-(trifluoromethyl)-5,6-dihydro-4H-1,3-oxazin-4-yl)-4,5-difluorophenyl)-5-methoxy-3-methylpyrazine-2-carboxamide] | 
13 | 0.072 | 0.088 | > 400 |  |  |  | NC1=N[C@](CF)(c2cc(NC(=O)c3ccc(C(F)F)cn3)ccc2F)C[C@@H](C(F)(F)F)O1 [Example 41, N-(3-((4S,6S)-2-amino-4-(fluoromethyl)-6-(trifluoromethyl)-5,6-dihydro-4H-1,3-oxazin-4-yl)-4-fluorophenyl)-5-(difluoromethyl)picolinamide] | 
14 |  |  |  |  |  |  | COc1cc(Cl)cnc1C(=O)Nc1ccc(F)c([C@]2(CF)C[C@@H](C(F)(F)F)OC(N)=N2)c1 [Example 47] | IC50 ([1]; average IC50): 0.0564 µM; IC50 [2, 9]: 0.0679 µM; IC50 ([3]; average IC50): > 400 µM
15 |  |  |  |  |  |  | N#Cc1ccc(C(=O)Nc2cccc([C@]3(CF)C[C@@H](C(F)(F)F)OC(N)=N3)c2)nc1 [Example 144, N-(3-((4S,6S)-2-amino-4-(fluoromethyl)-6-(trifluoromethyl)-5,6-dihydro-4H-1,3-oxazin-4-yl)phenyl)-5-cyanopicolinamide] | IC50 ([1]; average IC50): 0.0892 µM; IC50 [2, 9]: 0.067 µM; IC50 ([3]; average IC50): 665 µM
16 |  |  |  | 0.177 | 282 | 0.162 | COc1cccnc1Nc1cc(F)c(F)c([C@]2(C)C[C@@H](C(F)(F)F)OC(N)=N2)c1 [Example 231, (4S,6S)-4-(2,3-difluoro-5-((3-methoxypyridin-2-yl)amino)phenyl)-4-methyl-6-(trifluoromethyl)-5,6-dihydro-4H-1,3-oxazin-2-amine] | 
17 | 55.8 | 2.08 | > 400 |  |  |  | COC1CCN(C(=O)Nc2ccc(F)c([C@]3(C)C[C@@H](C(F)(F)F)OC(N)=N3)c2)CC1 [Example 119, N-(3-((4S,6S)-2-amino-4-methyl-6-(trifluoromethyl)-5,6-dihydro-4H-1,3-oxazin-4-yl)-4-fluorophenyl)-4-methoxypiperidine-1-carboxamide] | 
18 | 0.574 | 0.758 | 879 |  |  |  | NC1=N[C@](CF)(c2cc(Nc3ncccc3F)ccc2F)C[C@@H](C(F)(F)F)O1 [Example 14, (4S,6S)-4-(2-fluoro-5-((3-fluoropyridin-2-yl)-amino)phenyl)-4-(fluoromethyl)-6-(trifluoromethyl)-5,6-dihydro-4H-1,3-oxazin-2-amine] | 

Row | SMILES | IC50 [1, 4] [µM] | IC50 [2, 5] [µM] | IC50 [3, 6] [µM] | IC50 ([1]; average) [µM] | IC50 ([3]; average) [µM] | IC50 [2, 8] [µM] | other results
19 | N#Cc1cnc(C(=O)Nc2cc(F)c(F)c([C@]3(CF)C[C@@H](C(F)(F)F)OC(N)=N3)c2)c(F)c1 [Example 234, N-(3-((4S,6S)-2-amino-4-(fluoromethyl)-6-(trifluoromethyl)-5,6-dihydro-4H-1,3-oxazin-4-yl)-4,5-difluorophenyl)-5-cyano-3-fluoropicolinamide] |  |  |  | 0.038 | > 400 |  | IC50 [2, 7]: 0.057 µM
20 | C[Si](C)(C)C#Cc1ccc(-c2ccc(F)c([C@]3(CF)C[C@@H](C(F)(F)F)OC(N)=N3)c2)cn1 [Example 111, (4S,6S)-4-(2-fluoro-5-(6-((trimethylsilyl)ethynyl)pyridin-3-yl)phenyl)-4-(fluoromethyl)-6-(trifluoromethyl)-5,6-dihydro-4H-1,3-oxazin-2-amine] | 37.2 |  | > 400 |  |  |  | IC50 [2, 7]: > 15.6 µM
